PMC5762686, “Structural ensemble-based docking simulation and biophysical studies discovered new inhibitors of Hsp90 N-terminal domain” (Scientific Reports, 2018)
Like-named read-outs stand apart in the source and are kept apart here.

Assays:
Hsp90N [1] = target: T1, Hsp90N (Homo sapiens, UniProt P07900); experiment: Differential scanning fluorimetry (DSF), change of Tm; assay type: binding; conditions: apo Tm 44.4 °C, Hsp90N 2 μM, inhibitor 200 μM
T1 construct: contains DNA corresponding to residues 1–235 of human Hsp90α; made in house; host or cells: Escherichia coli BL21 (DE3)
Method: We also measured the change in the Tm value using differential scanning fluorimetry (DSF) to support direct binding (Fig. 2C).
DSF using a RT-PCR system (CFX connect, BioRad) assessed the stability of Hsp90N in the absence and presence of the hit compounds that were identified by 2D NMR[75]. Once Sypro-Orange (5×) was added into the solution of Hsp90N with each hit compound, the fluorescence from the dye was measured with excitation at 492 nm and emission at 610 nm in a temperature-dependent manner from 30 to 90 °C. The concentrations for Hsp90N and inhibitors were 2 and 200 μM, respectively. As a control, DMSO was mixed with the protein, and the fluorescence was measured with an identical procedure. The mid-point of the melting temperature, Tm, was deduced by calculating the temperature that maximizes the differential curve of the profiles.

Hsp90 = tested on: Hsp90; parameters: method as in PMID 16854066; conditions: fluorescence polarization; cited from earlier work
Hsp90N [2] = tested on: Hsp90N; parameters: method as in PMID 27899599; conditions: PubChem BioAssay database AID: 712; cited from earlier work
Hsp90N [3] = tested on: Hsp90N; parameters: method as in PMID 19519743; conditions: BindingDB; cited from earlier work

In the case of `CO[C@H]1/C=C\C=C(/C)C(=O)NC2=CC(=O)C(NCCN(C)C)=C(C[C@@H](C)C[C@H](OC)[C@H](O)[C@@H](C)/C=C(\C)[C@@H]1OC(N)=O)C2=O` [17-DMAG], the “elevated Tm values” (Hsp90N [1]) is listed as 11.3 and the IC50 (Hsp90) is listed as 62 nM.
In the case of `Cc1cc(SCC(N)=O)nc(SCC(=O)c2ccccc2)n1` [ZINC00421600], the IC50 (Hsp90N [2]) is listed as 50000 nM.
In the case of `Oc1ccc(-c2n[nH]c(=S)n2-c2ccccc2)c(O)c1` [ZINC01264822], the IC50 (Hsp90N [3]) is given as 0.5 nM.
For `CCc1cc(-c2n[nH]cc2-c2ccc3c(c2)OCO3)c(O)cc1O` [ZINC18130036], the IC50 (Hsp90N [2]) is listed as 2000 nM.
